In the supplement of paper PMC11061612:

Legend:
Assay in all cases: Bliss excess, mean over the matrix (fraction); higher = more synergy
[1] = test system: MDA-MB-415 (Breast Carcinoma)
Outline: (§1)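 Bliss excess equals the observed combination effect minus the expected value EA + EB − EA·EB, where EA and EB are the effects of each agent alone. Combination Emax is the second-highest inhibition within the matrix. Inhibition was scaled from CellTiter-Glo 2.0 luminescence, with 0 set by vehicle wells and 1 by blank wells, after 72 hours of two-drug dosing of cells plated in 1536-well plates.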

[2] = test system: T84 (Colorectal Carcinoma)
Outline: as §1

[3] = test system: HT-1080 (Other Solid Carcinomas)
Outline: as §1

[4] = test system: SAT (Head and Neck Carcinoma)
Outline: as §1

[5] = test system: SK-CO-1 (Colorectal Carcinoma)
Outline: as §1

[6] = test system: MONO-MAC-6 (Acute Myeloid Leukemia)
Outline: as §1

[7] = test system: KP-4 (Pancreatic Carcinoma)
Outline: as §1

[8] = test system: BHT-101 (Thyroid Gland Carcinoma)
Outline: as §1

[9] = test system: OVCAR-3 (Ovarian Carcinoma)
Outline: as §1

[10] = test system: NCI-H3118 (Head and Neck Carcinoma)
Outline: as §1

[11] = test system: KALS-1 (Glioblastoma)
Outline: as §1

[12] = test system: PA-TU-8988T (Pancreatic Carcinoma)
Outline: as §1

[13] = test system: NCI-H1341 (Small Cell Lung Carcinoma)
Outline: as §1

[14] = test system: SNU-423 (Hepatocellular Carcinoma)
Outline: as §1

[15] = test system: IA-LM (Non-Small Cell Lung Carcinoma)
Outline: as §1

[16] = test system: WM35 (Melanoma)
Outline: as §1

[17] = test system: DBTRG-05MG (Glioblastoma)
Outline: as §1

[18] = test system: NCI-H1876 (Small Cell Lung Carcinoma)
Outline: as §1

[19] = test system: PL4 (Pancreatic Carcinoma)
Outline: as §1

[20] = test system: C-33-A (Cervical Carcinoma)
Outline: as §1

| SMILES | Bliss excess [1] | Bliss excess [2] | Bliss excess [3] | Bliss excess [4] | Bliss excess [5] | Bliss excess [6] | Bliss excess [7] | Bliss excess [8] | Bliss excess [9] | Bliss excess [10] | Bliss excess [11] | Bliss excess [12] | Bliss excess [13] | Bliss excess [14] | Bliss excess [15] | Bliss excess [16] | Bliss excess [17] | Bliss excess [18] | Bliss excess [19] | Bliss excess [20] |
| --- | --- | --- | --- | --- | --- | --- | --- | --- | --- | --- | --- | --- | --- | --- | --- | --- | --- | --- | --- | --- |
| COc1cccc2c1C(=O)c1c(O)c3c(c(O)c1C2=O)C[C@@](O)(C(=O)CO)C[C@@H]3O[C@H]1C[C@H](N)[C@H](O)[C@H](C)O1 [Doxorubicin] + Cc1cc2ncnn2cc1Nc1ncc2c(n1)n(C1CCOCC1)c(=O)n2C [AZD7648] (first compound max 1 µM, 7x7, partner max 10 µM) | -0.039 | -0.0081 | 0.108 | 0.0764 | -0.0163 | 0.0935 | 0.0583 | 0.0409 | 0.0489 | 0.0731 | 0.0571 | 0.0582 | 0.0628 | 0.0414 | 0.0044 | 0.0285 | 0.0225 | 0.144 | 0.0391 | 0.0531 |
| COc1cc2ncnc(Nc3ccc(F)c(Cl)c3)c2cc1OCCCN1CCOCC1 [Gefitinib] + CC(C)n1c(=O)n(C)c2cnc3cc(F)c(-c4ccc(OCCCN5CCCCC5)nc4)cc3c21 [AZD1390] (first compound max 10 µM, 7x7, partner max 0.3 µM) | -0.103 | -0.035 | -0.0548 | -0.0522 | -0.0056 | -0.0545 | -0.073 | -0.035 | -0.056 | -0.0011 | -0.0471 | -0.0342 | -0.0399 | -0.0902 | -0.111 | -0.0641 | -0.0482 | -0.074 | -0.055 | -0.0656 |
| CS(=O)(=O)CCNCc1ccc(-c2ccc3ncnc(Nc4ccc(OCc5cccc(F)c5)c(Cl)c4)c3c2)o1 [Lapatinib] + C[C@@H](Oc1cc(-c2cnn(C3CCNCC3)c2)cnc1N)c1c(Cl)ccc(F)c1Cl [Crizotinib] (first compound max 10 µM, 7x7, partner max 10 µM) | -0.0417 | -0.006 | -0.012 | -0.0358 | -0.0721 | -0.0438 | -0.0775 | -0.0399 | -0.0161 | 0.0337 | -0.0378 | -0.0244 | 0.0876 | -0.074 | -0.0133 | -0.0446 | -0.0334 | 0.0167 | 0.0434 | -0.0373 |
| CC(=O)c1c(C)c2cnc(Nc3ccc(N4CCNCC4)cn3)nc2n(C2CCCC2)c1=O [Palbociclib] + CC1(C)CCC(CN2CCN(c3ccc(C(=O)NS(=O)(=O)c4ccc(NCC5CCOCC5)c([N+](=O)[O-])c4)c(Oc4cnc5[nH]ccc5c4)c3)CC2)=C(c2ccc(Cl)cc2)C1 [Venetoclax] (first compound max 10 µM, 7x7, partner max 1 µM) | -0.0338 | -0.0556 | -0.0573 | -0.0489 | -0.122 | 0.0129 | -0.104 | -0.0607 | -0.0356 | -0.0142 | -0.0396 | -0.0333 | 0.0245 | -0.034 | -0.0647 | -0.0448 | -0.0477 | 0.0162 | -0.0521 | -0.0474 |
| CC(=O)c1c(C)c2cnc(Nc3ccc(N4CCNCC4)cn3)nc2n(C2CCCC2)c1=O [Palbociclib] + Cc1c2c(nn1C)CSCc1cc(n(C)n1)CSc1cc(c3ccccc3c1)OCCCc1c(C(=O)O)n(C)c3c-2c(Cl)ccc13 [AZD5991] (first compound max 10 µM, 7x7, partner max 1 µM) | -0.113 | -0.0578 | -0.0592 | -0.0367 | -0.035 | -0.0016 | -0.0249 | -0.0105 | -0.0553 | 0.0084 | -0.0609 | -0.0361 | -0.031 | -0.0349 | -0.161 | -0.0198 | -0.0561 | 0.0191 | -0.0458 | -0.0163 |
| CC(=O)c1c(C)c2cnc(Nc3ccc(N4CCNCC4)cn3)nc2n(C2CCCC2)c1=O [Palbociclib] + Cn1cnc2c(F)c(Nc3ccc(Br)cc3Cl)c(C(=O)NOCCO)cc21 [Selumetinib] (first compound max 10 µM, 7x7, partner max 10 µM) | -0.0588 | -0.0476 | -0.0519 | 0.0504 | -0.0121 | 0.0184 | -0.0235 | -0.0073 | -0.0361 | 0.0418 | -0.0353 | 0.0449 | -0.0199 | -0.0141 | 0.0126 | -0.0282 | 0.0013 | 0.0495 | -0.0553 | 0.0164 |
